Like-named read-outs stand apart in the source and are kept apart here.
Key:
Experiment in all cases: HotSpot kinase profiling
Assay type in all cases: biochemical
AXL = target: T1, AXL (Homo sapiens, UniProt P30530)
T1 construct: purchased Reaction Biology Corp
T1 sequence (P30530 26-894): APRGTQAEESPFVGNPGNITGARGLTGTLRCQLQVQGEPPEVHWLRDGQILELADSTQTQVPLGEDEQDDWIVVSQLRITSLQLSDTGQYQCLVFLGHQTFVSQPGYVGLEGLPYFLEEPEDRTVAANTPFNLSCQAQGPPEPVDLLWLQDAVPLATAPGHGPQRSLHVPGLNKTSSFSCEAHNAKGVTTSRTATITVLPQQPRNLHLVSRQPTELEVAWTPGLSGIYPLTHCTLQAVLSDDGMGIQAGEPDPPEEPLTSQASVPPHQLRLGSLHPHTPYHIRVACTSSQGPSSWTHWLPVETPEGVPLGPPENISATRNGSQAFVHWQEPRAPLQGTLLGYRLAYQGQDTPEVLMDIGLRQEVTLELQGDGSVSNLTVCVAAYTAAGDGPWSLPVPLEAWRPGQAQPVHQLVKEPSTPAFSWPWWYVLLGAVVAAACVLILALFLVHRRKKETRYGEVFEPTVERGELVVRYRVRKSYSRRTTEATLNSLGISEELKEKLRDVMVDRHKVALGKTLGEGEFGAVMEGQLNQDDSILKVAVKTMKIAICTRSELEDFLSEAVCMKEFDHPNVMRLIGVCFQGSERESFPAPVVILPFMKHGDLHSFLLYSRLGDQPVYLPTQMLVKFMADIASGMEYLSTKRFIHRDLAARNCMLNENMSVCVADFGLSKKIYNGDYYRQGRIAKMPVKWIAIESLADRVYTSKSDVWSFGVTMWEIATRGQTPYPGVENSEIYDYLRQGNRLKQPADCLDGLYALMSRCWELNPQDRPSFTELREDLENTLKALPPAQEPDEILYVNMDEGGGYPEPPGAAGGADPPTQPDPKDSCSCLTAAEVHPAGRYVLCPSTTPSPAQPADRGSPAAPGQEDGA
Method in brief: (§1)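 Activity is measured by radiolabel transfer captured on P81 filters after a 2 h room-temperature reaction of kinase, substrate and cofactors. Values are percent inhibition against DMSO.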

CAMK1g = target: T2, CAMK1g (Homo sapiens, UniProt Q96NX5)
T2 construct: purchased Reaction Biology Corp
T2 sequence (Q96NX5 whole entry): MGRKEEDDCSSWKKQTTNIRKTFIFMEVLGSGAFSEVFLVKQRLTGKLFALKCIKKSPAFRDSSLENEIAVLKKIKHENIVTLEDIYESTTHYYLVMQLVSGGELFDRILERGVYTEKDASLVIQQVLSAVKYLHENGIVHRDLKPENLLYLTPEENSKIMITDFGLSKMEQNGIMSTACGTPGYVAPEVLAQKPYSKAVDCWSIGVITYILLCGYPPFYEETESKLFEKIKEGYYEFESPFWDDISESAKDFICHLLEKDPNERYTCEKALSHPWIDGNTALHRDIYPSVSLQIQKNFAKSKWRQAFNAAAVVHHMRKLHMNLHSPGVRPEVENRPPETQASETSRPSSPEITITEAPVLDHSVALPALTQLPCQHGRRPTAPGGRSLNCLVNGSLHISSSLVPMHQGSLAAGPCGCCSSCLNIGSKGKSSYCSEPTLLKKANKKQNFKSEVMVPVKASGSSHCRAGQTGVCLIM
Method in brief: as §1

CAMKK2 = target: T3, CAMKK2 (Homo sapiens, UniProt Q96RR4)
T3 construct: purchased Reaction Biology Corp
T3 sequence (Q96RR4 whole entry): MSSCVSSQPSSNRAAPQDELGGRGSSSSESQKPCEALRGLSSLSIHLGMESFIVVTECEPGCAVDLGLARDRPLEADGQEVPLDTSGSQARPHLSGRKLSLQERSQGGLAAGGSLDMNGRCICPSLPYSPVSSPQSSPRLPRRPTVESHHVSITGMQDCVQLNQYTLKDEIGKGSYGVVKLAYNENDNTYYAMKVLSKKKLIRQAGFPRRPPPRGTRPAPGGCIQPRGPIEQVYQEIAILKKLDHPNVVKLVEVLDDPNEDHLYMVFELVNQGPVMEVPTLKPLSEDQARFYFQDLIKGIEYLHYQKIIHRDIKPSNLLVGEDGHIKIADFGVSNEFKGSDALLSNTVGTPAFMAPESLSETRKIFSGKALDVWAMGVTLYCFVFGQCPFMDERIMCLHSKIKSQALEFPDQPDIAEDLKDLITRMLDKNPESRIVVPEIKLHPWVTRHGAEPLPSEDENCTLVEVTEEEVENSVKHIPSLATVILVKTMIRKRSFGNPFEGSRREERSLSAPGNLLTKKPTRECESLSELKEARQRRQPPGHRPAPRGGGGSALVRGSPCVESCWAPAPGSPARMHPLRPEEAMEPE
Method in brief: as §1

CK1g2 = target: T4, CK1g2 (Homo sapiens, UniProt P78368)
T4 construct: purchased Reaction Biology Corp
T4 sequence (P78368 whole entry): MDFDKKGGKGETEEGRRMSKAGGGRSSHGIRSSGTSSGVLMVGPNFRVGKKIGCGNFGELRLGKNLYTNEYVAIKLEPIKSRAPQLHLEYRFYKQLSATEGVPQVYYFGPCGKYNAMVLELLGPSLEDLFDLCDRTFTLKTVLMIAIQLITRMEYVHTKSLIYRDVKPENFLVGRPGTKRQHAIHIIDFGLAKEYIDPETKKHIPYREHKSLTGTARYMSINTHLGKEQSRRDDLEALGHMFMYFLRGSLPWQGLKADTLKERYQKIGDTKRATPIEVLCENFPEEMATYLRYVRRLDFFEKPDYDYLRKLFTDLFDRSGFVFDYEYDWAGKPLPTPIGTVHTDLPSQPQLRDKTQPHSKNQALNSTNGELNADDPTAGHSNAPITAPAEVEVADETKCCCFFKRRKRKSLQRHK
Method in brief: as §1

DDR1 = target: T5, DDR1 (Homo sapiens, UniProt Q08345)
T5 construct: purchased Reaction Biology Corp
T5 sequence (Q08345 19-913): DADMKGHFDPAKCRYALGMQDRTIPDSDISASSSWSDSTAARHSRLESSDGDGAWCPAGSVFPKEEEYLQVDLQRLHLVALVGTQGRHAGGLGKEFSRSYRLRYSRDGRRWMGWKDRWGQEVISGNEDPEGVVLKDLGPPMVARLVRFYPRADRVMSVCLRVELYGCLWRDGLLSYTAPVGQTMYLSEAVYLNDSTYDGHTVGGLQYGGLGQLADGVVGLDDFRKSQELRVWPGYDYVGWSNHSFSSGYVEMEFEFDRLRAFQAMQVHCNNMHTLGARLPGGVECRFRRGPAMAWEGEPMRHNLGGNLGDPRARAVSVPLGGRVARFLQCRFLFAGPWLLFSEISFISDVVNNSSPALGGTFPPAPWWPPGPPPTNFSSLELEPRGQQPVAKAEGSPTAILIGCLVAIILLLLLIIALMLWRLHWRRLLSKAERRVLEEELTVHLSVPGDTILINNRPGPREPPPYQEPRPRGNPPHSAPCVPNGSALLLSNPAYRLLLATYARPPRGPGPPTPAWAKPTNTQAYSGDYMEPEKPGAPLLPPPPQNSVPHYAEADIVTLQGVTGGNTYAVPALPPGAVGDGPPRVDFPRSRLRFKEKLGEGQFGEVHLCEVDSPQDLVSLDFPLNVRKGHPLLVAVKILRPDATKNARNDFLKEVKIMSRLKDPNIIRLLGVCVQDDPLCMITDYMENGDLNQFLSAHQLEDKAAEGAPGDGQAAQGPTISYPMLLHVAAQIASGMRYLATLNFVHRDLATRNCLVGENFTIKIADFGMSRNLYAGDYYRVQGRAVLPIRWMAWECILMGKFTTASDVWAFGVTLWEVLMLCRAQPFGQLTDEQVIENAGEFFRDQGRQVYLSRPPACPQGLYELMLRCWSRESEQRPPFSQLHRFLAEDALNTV
Method in brief: as §1

GRK3 = target: T6, GRK3 (Homo sapiens, UniProt P35626)
T6 construct: purchased Reaction Biology Corp
T6 sequence (P35626 1-688): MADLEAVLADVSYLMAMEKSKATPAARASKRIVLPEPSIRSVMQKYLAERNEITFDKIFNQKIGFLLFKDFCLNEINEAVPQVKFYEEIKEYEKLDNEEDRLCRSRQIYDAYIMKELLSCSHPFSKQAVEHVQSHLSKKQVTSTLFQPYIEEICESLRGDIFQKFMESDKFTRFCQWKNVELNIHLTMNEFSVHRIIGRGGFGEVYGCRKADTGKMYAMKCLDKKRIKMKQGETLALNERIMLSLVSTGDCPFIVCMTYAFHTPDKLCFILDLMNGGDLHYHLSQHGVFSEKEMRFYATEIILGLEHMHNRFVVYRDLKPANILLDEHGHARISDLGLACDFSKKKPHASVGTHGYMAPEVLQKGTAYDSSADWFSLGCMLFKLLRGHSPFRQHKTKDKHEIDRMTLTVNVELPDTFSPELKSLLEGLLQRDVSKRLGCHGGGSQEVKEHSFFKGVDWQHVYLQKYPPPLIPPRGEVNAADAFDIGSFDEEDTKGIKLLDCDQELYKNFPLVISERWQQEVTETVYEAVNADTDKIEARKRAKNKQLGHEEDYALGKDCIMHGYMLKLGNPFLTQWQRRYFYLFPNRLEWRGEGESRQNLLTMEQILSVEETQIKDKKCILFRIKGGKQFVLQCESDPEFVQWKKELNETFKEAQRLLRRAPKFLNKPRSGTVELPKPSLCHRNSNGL
Method in brief: as §1

IRAK1 = target: T7, IRAK1 (Homo sapiens, UniProt P51617)
T7 construct: purchased Reaction Biology Corp
T7 sequence (P51617 whole entry): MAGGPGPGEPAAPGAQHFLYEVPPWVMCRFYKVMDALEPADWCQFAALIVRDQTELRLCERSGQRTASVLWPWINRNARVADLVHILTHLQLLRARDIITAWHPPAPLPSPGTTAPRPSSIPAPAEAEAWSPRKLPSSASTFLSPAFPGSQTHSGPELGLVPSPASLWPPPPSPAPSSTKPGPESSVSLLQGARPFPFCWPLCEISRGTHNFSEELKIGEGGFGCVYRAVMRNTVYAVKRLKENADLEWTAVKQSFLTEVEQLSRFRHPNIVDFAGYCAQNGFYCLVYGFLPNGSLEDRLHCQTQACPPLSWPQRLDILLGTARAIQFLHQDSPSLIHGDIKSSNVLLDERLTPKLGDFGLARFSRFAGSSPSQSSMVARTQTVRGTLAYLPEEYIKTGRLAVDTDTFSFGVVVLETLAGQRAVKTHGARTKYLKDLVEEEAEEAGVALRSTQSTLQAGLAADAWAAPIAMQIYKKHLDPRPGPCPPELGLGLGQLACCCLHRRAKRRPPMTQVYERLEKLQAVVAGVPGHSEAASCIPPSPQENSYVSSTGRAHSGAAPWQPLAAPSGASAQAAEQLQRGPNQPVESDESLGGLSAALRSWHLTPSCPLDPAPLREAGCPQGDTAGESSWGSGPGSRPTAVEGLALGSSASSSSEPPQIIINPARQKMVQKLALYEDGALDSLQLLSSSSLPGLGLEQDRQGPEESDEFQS
Method in brief: as §1

PKN3/PRK3 = target: T8, PKN3/PRK3 (Homo sapiens, UniProt Q6P5Z2)
T8 construct: purchased Reaction Biology Corp
T8 sequence (Q6P5Z2 whole entry): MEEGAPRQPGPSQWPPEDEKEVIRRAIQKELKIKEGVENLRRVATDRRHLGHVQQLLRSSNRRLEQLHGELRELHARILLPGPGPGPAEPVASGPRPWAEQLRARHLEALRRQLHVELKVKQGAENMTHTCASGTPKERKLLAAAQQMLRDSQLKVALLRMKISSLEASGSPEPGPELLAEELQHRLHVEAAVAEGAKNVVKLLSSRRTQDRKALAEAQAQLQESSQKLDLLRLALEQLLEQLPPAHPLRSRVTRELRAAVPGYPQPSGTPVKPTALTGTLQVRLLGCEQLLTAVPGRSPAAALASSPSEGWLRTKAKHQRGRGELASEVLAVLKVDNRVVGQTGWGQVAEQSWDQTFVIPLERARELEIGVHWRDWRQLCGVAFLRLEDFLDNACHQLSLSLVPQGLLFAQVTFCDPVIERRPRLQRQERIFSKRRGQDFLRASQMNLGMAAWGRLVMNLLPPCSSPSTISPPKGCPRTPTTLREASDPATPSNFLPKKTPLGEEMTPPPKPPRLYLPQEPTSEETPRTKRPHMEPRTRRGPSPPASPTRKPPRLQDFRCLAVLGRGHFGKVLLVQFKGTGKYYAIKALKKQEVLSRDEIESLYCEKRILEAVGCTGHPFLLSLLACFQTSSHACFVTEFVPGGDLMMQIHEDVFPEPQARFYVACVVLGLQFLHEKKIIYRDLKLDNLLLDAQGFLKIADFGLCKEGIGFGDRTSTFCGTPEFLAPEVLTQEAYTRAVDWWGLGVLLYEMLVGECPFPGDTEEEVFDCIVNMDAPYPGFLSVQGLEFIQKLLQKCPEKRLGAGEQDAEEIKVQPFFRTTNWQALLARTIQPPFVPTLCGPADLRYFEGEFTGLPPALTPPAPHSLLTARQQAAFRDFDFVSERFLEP
Method in brief: as §1

c-Kit = target: T9, c-Kit (Homo sapiens, UniProt P10721)
T9 construct: purchased Reaction Biology Corp
T9 sequence (P10721 26-976): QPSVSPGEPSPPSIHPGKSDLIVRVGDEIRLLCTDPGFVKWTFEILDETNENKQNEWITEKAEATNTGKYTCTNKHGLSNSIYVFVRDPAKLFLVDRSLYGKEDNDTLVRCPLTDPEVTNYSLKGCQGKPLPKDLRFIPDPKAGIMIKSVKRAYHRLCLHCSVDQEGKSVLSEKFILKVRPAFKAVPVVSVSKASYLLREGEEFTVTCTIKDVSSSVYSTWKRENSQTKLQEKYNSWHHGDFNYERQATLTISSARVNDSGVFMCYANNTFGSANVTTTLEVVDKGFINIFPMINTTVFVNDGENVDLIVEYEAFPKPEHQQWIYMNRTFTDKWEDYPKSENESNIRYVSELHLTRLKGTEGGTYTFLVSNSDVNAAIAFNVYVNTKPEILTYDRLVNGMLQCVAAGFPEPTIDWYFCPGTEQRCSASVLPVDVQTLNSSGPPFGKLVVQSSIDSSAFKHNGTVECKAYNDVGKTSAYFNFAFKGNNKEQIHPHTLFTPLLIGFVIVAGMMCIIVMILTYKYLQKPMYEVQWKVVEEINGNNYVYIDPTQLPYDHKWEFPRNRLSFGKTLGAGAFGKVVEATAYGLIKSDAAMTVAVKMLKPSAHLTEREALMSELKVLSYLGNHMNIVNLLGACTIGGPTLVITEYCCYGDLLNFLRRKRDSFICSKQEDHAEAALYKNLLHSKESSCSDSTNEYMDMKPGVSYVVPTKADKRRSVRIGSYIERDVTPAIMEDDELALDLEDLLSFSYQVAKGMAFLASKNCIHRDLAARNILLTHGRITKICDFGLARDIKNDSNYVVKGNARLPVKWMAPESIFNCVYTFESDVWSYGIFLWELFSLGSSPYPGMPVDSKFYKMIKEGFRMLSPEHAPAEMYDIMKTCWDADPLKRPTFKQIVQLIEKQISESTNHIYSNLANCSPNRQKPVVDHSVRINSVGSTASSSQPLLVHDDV
Method in brief: as §1

[1] = read-out: % Enzyme Activity (relative to DMSO controls) Run 1
[2] = read-out: % Enzyme Activity (relative to DMSO controls) Run 2

`C=CC(=O)Nc1cccc(Nc2nc(Nc3ccc(OCCOC)c(F)c3)ncc2F)c1` [Compound 2] was tested, and the inhibition at 3 µM (AXL) was 51.3%, the remaining activity at 3 µM (AXL; [1]) was 48.6% and the remaining activity at 3 µM (AXL; [2]) was 48.8%. For the same compound, the inhibition at 3 µM (CAMK1g) was -0.72%, the remaining activity at 3 µM (CAMK1g; [1]) was 100% and the remaining activity at 3 µM (CAMK1g; [2]) was 101%. For the same compound, the inhibition at 3 µM (CAMKK2) was 26.8%, the remaining activity at 3 µM (CAMKK2; [1]) was 74.7% and the remaining activity at 3 µM (CAMKK2; [2]) was 71.8%. It also gave an inhibition at 3 µM (CK1g2) of 12.6%, a remaining activity at 3 µM (CK1g2; [1]) of 89.1% and a remaining activity at 3 µM (CK1g2; [2]) of 85.7%. It also gave an inhibition at 3 µM (DDR1) of 75.1%, a remaining activity at 3 µM (DDR1; [1]) of 25.7% and a remaining activity at 3 µM (DDR1; [2]) of 24.1%. It also gave an inhibition at 3 µM (GRK3) of -0.2%, a remaining activity at 3 µM (GRK3; [1]) of 99.5% and a remaining activity at 3 µM (GRK3; [2]) of 101%. It also gave an inhibition at 3 µM (IRAK1) of 24.6%, a remaining activity at 3 µM (IRAK1; [1]) of 76.5% and a remaining activity at 3 µM (IRAK1; [2]) of 74.4%. For the same compound, the inhibition at 3 µM (PKN3/PRK3) was -7.32%, the remaining activity at 3 µM (PKN3/PRK3; [1]) was 106% and the remaining activity at 3 µM (PKN3/PRK3; [2]) was 108%. It also gave an inhibition at 3 µM (c-Kit) of 21.5%, a remaining activity at 3 µM (c-Kit; [1]) of 77.5% and a remaining activity at 3 µM (c-Kit; [2]) of 79.5%.
